Legend:
BIKE = settings: cited from earlier work
GAK = settings: at 10 μM; cited from earlier work
DENV2 [1] = assay type: cell-based, dengue virus; settings: read-out: EC50, DENV2 infection
EBOV = assay type: cell-based, Ebola virus; settings: read-out: EC50, EBOV infection
DENV [2] = assay type: cell-based; settings: BIKE-inducible T-REx-293 cells, doxycycline induction, 72 hours treatment
phospho-AP2M1 (T156) = assay type: cell-based
ERK2 = settings: read-out: IC50, ERK2; cited from earlier work
DENV [3] = assay type: cell-based, dengue virus; settings: read-out: EC50, DENV infection in MDDC
TAK1 = settings: read-out: IC50, TAK1; cited from earlier work
AAK1 = settings: at 10 μM; cited from earlier work
[4] = test system: primary human monocyte derived dendritic cells (MDDC)
VEEV (TC-83) = assay type: cell-based, Venezuelan equine encephalitis virus; settings: read-out: EC50, VEEV (TC-83) infection
DENV2 [5] = assay type: cell-based, dengue virus

Row | Compound | KINOMEscan binding, BIKE (BIKE; at 10 μM) | IC50 (BIKE; read-out: IC50 value for BIKE inhibition or binding (Discussion)) [µM] | KINOMEscan binding, GAK (GAK) | EC50 (DENV2 [1]) [µM] | EC50 (EBOV) [µM] | cellular toxicity in the EBOV assay (Huh7 cells) | DENV infection upon BIKE expression in drug-treated cells (DENV [2]) | effect on AP2M1 phosphorylation (phospho-AP2M1 (T156)) | effect on phospho-AP2M1 level at 10 μM (phospho-AP2M1 (T156)) | IC50 (ERK2) [µM] | EC50 (DENV [3]) [µM] | IC50 (TAK1) [µM] | KINOMEscan binding, AAK1 (AAK1) | CC50 [4] [µM] | EC50 (VEEV (TC-83)) [µM] | effect on viral infection at 6 hours postinfection (DENV2 [5])
1 | COc1cc(O)c2c(c1)/C=C/C[C@H](O)[C@H](O)C(=O)/C=C\C[C@H](C)OC2=O [5Z-7-oxozeaenol] | 3.8 % of control | 0.0038 | 10 % of control | 2.47 | 4.09 | no apparent cellular toxicity within the concentration range tested | partially restored | dramatic reduction in AP2M1 phosphorylation | significant reduction | 0.08 | 0.54 | 0.008 | 13 % of control | 5.49 | 2.6 | –
2 | C[C@@H]1C[C@@H]([C@H](O)CC2CC(=O)NC(=O)C2)C(=O)[C@@H](C)C1 [cycloheximide] | – | – | – | – | – | – | – | – | – | – | – | – | – | – | – | suppressed viral infection
